Data on twelve molecules can be found in patent US8993527B2, “Methods, compositions, and formulations for preventing or reducing adverse effects in a patient” (Pericor Therapeutics, Inc., priority 2005, dated 2015).

The subject of assay [1] is longitudinal muscle from the guinea pig ileum. The experiment in a line: Inhibition of stimulated contraction in isolated ileum. The settings on record: Cavia porcellus; electrically stimulated guinea pig ileum muscle. From the text: These are detailed in Table II.
The target of assay [2] is T1, NBTI-specific adenosine transport site (UniProt O54698).
T1 sequence (O54698 1-457): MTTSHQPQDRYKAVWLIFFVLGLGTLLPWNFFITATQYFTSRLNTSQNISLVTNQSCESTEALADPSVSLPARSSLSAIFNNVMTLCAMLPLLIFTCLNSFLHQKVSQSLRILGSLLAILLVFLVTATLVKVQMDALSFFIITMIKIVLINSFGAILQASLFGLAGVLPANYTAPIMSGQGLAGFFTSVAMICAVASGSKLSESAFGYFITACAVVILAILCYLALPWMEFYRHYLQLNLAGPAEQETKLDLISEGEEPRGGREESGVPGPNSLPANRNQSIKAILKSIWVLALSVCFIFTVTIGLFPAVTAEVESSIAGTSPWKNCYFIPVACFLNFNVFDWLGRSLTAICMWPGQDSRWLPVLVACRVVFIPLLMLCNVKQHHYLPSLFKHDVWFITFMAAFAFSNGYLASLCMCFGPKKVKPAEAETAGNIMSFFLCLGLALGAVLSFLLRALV
The experiment in a line: [3H]-NBTI binding assay. The settings on record: read-out: ED50 (50% displacement of bound [3H]-NBTI); 0.5 mg neuronal membrane protein, 0.5 nM [3H]-NBTI, 30 minutes. As for the experimental part: Increasing concentrations of the test compounds were incubated for 30 minutes with 0.5 mg neuronal membrane protein together with 0.5 nM [^3 H]-NBTI in a Tris buffer (pH 7.4) at room temperature. The assays were quenched and membranes collected by rapid filtration. Filters were then solubilized and radioactivity determined by scintillation counting.

Assay [3] relates to coronary endothelial cells. The experiment in a line: Inhibition of adenosine utilization in cell culture. It is filed as cell-based. The settings on record: 1 μM [3H] adenosine, 15 minutes; for inhibition at 5 µM / inhibition at 50 µM: Endothelial cell. The protocol: In this assay, endothelial cells were incubated with 5 μM or 50 μM of the test compound together with 1 μM [^3H] adenosine for 15 minutes. Inhibition of adenosine utilization was determined by measuring the concentration of extracellular adenosine by scintillation counting following separation by thin layer chromatography (TLC).

The test system of assay [4] is platelet aggregation in human whole blood. The experiment in a line: Inhibition of platelet aggregation in human whole blood. It is filed as cell-based. The note with it: 10 minutes at 37° C., 10 µM adenosine added, ADP (6-25 μM). The protocol: Whole blood was drawn from healthy donors and collected in 0.1 vol. of sodium citrate to prevent coagulation. Platelet aggregation was measured by the impedance technique using a Whole Blood Aggregometer. The test compounds were incubated in whole blood for 10 minutes at 37° C. and 10 µM adenosine was added 5 minutes before eliciting aggregation. Aggregation was induced by addition of ADP (6-25 μM) at the minimum concentration inducing full aggregation in untreated controls.

The term IC50 denotes the concentration that inhibits the measured activity by half. The low end stands for inhibition by little substance, the high end for a need for much substance. Broadly, the inhibition is the change of the read-out against control, counted positive when it falls. A high value points to a response far below the control. As to `Nc1c(C(=O)NCc2ccc(Cl)cc2Cl)ncn1C1OC(CO)C(O)C1O` [Compound No. 25 (1-360), 5-amino-1-β-D-ribofuranosylimidazole-4-N-[(2,4-dichlorophenyl)methyl]carboxamide], the IC50 in assay [1] is 20 µM. For the same molecule, in assay [2], the EC50 was 72 µM. Further, in assay [3] (5 μM), the inhibition at 5 µM is 21 ± 1%. In assay [3] (50 μM), this molecule yielded an inhibition at 50 µM of 56 ± 2%.

Regarding `Nc1c(C(=O)NCc2cccc([N+](=O)[O-])c2)ncn1C1OC(CO)C(O)C1O` [Compound No. 28 (1-348), 5-amino-1-β-D-ribofuranosylimidazole-4-N-[(3-nitrophenyl)methyl]carboxamide], in assay [2], the EC50 amounted to 15 µM. Besides, in assay [4] (Homo sapiens, Platelet, 10 min), the IC50 was found to be 180 µM. In assay [3] (5 μM), this molecule yielded an inhibition at 5 µM of 17 ± 3%. The same molecule came in with an inhibition at 50 µM in assay [3] (50 μM) of 47 ± 2%.

On to `Cc1ccc(CNC(=O)c2ncn(C3OC(CO)C(O)C3O)c2N)cc1` [Compound No. 30 (1-388), 5-amino-1-β-D-ribofuranosylimidazole-4-N-[(4-methylphenyl)methyl]carboxamide], for which it took 20 µM to reach half-maximal inhibition in assay [1] (IC50). In assay [2], the EC50 was 225 µM. The molecule also had an inhibition at 5 µM in assay [3] (5 μM) of 21 ± 1%. In addition, in assay [3] (50 μM), at 50 µM the inhibition was 49 ± 4%.

As for `COc1ccc(CNC(=O)c2ncn(C3OC(CO)C(O)C3O)c2N)cc1` [Compound No. 39 (1-390), 5-Amino-1-β-D-ribofuranosyl-imidazole-4-N-[p-methoxybenzyl]carboxamide], the IC50 in assay [1] amounted to 500 µM. The EC50 in assay [2] turned out to be 600 µM. The inhibition at 5 µM in assay [3] (5 μM) was 7 ± 4%. Besides, at 50 µM the inhibition in assay [3] (50 μM) was 29 ± 1%.

In assay [1], `Nc1c(C(=O)NCc2cccc(I)c2)ncn1C1OC(CO)C(O)C1O` [Compound No. 44 (1-434), 5-Amino 1-β-D-ribofuranosyl-imidazole-4-N-[(3-iodophenyl)methyl]carboxamide] gave an IC50 of 20 µM.

In assay [1], `Nc1c(C(=O)NC2CC3CCC2C3)ncn1C1OC(CO)C(O)C1O` [Compound No. 45 (1-438), 5-Amino-1-β-D-ribofuranosylimidazole-4-N-(2-endo-norbornyl)carboxamide] registered an IC50 of 100 µM. Moreover, in assay [2], the EC50 came out at 90 µM.

Turning to `[N-]=[N+]=NCC1OC(n2cnc(C(=O)NCc3ccc(Cl)cc3)c2N)C(O)C1O` (stereo not shown) [Compound No. 52 (1-467)], 480 µM corresponded to half-maximal inhibition in assay [4] (Homo sapiens, Platelet, 10 min) (IC50).

In the case of `Nc1c(C(=O)NCc2ccc(Br)cc2)ncn1C1OC(CO)C(O)C1O` [Compound No. 56 (1-487), 5-Amino 1-β-D-ribofuranosyl-imidazole-4-N-[(4-bromophenyl)methyl]carboxamide], in assay [2], the EC50 worked out at 32 µM. The molecule also showed an IC50 in assay [4] (Homo sapiens, Platelet, 10 min) of 75 µM. The inhibition at 5 µM in assay [3] (5 μM) was found to be 55 ± 7%. Besides, the inhibition at 50 µM in assay [3] (50 μM) is 65 ± 9%.

As to `Nc1c(C(=O)NCCc2ccc([N+](=O)[O-])cc2)ncn1C1OC(CO)C(O)C1O` [Compound No. 59 (1-506), 5-Amino-1-β-D-ribofuranosyl-imidazole-4-N→2-(4-nitrophenyl)ethyl carboxamide], the EC50 in assay [2] was 2 µM. This molecule also gave an IC50 in assay [4] (Homo sapiens, Platelet, 10 min) of 70 µM.

As for `C[C@H]1O[C@@H](n2cnc(C(=O)NCc3ccc(Cl)cc3)c2N)[C@H](O)[C@@H]1O` [Compound No. 61 (1-509), 5-Amino-1-(5-deoxy-β-D-ribofuranosyl)imidazole-4N-[(4-chlorophenyl)methyl]carboxamide], the EC50 in assay [2] worked out at 32 µM. In addition, the IC50 in assay [4] was determined as 171 µM. Also, the results for the “Inhibition of Adenosine Utilization (%)” value in assay [3] (5 μM) and in assay [3] (50 μM) were 37 ± 28% and 72 ± 5%, respectively.

Regarding `[N-]=[N+]=NC[C@H]1O[C@@H](n2cnc(C(=O)NCc3ccc([N+](=O)[O-])cc3)c2N)[C@H](O)[C@@H]1O` [Compound No. 71 (1-562)], the IC50 in assay [4] stood at 40 µM. For the same molecule, the “Inhibition of Adenosine Utilization (%)” value in assay [3] (5 μM) was 10 ± 3%; in assay [3] (50 μM), 31 ± 11%.

Take `NC[C@H]1O[C@@H](n2cnc(C(=O)NCc3ccc([N+](=O)[O-])cc3)c2N)[C@H](O)[C@@H]1O` [Compound No. 72 (1-563)]: in assay [4], the IC50 came out at 300 µM.
